The target of one test is RON (Homo sapiens, UniProt Q04912). The test can be described thus: Evaluation of inhibitory activity against RON (TR-FRET). The format is biochemical. As to conditions: TR-FRET kinase assay, RON protein. As to the method: In order to measure the inhibitory activity of each of the compounds of Examples against RON, the IC50 of each of the compounds was measured using a Time-Resolved Fluorescence Energy Transfer Chemistry (TR-FRET).
Specifically, the compound was prepared to a concentration of 1 mM with 100% DMSO and was diluted 10 times in a stepwise manner through 3-fold dilution. 2 ul of the compound diluted in a stepwise manner was added to a 96-well-plate containing 48 ul of a 1×kinase reaction buffer (50 mM HEPES (pH 7.4), 0.01% Tween-20, 5 mM DTT, 0.5 mM Na3VO4, 2 mM EGTA, 10 mM MgCl2).
The RON protein was diluted to a concentration of 49.3 nM with an RON storage buffer (50 mM Tris-HCl (pH 7.5), 150 mM NaCl, 0.5 mM EDTA, 0.02% Triton X-100), and then diluted again to a concentration of 0.4 nM with a 1×kinase reaction buffer. As a substrate cocktail, a RON-specific substrate mixture (40 uM ULight-labeled Poly GT, 100 nM ATP) at a concentration 2 times the final reaction concentration.
(§1) Thereafter, a 384-well-plate was prepared, and 2.5 μl of each of the diluted compounds of Examples was added to a corresponding well of experimental group wells, and 2.5 μl of a 4% DMSO solution was dispensed into high control wells and low control wells.
(§2) Thereafter, 2.5 μL of 0.4 nM RON was dispensed into the high control wells and the experimental group wells, and 2.5 μL of a 1× kinase reaction buffer was added to the low control wells, and the RON and the reaction buffer were centrifuged at room temperature for 40 seconds at 1000 RPM, and then incubated at room temperature for 20 to 30 minutes. Then, 5 uL of a substrate cocktail (2×) was dispensed into all wells, centrifuged at room temperature for 40 seconds at 1000 RPM, and then incubated at room temperature for 60 minutes. Thereafter, 5 uL of 30 mM EDTA was added to all wells to terminate the reaction, and then incubated again at room temperature for 5 minutes. Thereafter, 5 uL of a 4× phosphotyrosine antibody (Perkin Elmer) containing europium was added to all wells, and then incubated at room temperature for 60 minutes. After the incubation, the 384-well-plate was read with a Vison plate reader. At this time, the excitation wavelength was 340 nm, and the emission wavelength was 620 nm and 665 nm. The IC50 value of the compound of each Example was derived using the GraphPd Prism7 program.
On the technique in general: Time-resolved FRET reads energy transfer from a long-lived donor to a nearby acceptor.

A further test concerns the target cMET (Homo sapiens, UniProt P08581). Put plainly: Evaluation of inhibitory activity against MET (TR-FRET). It counts as biochemical. As to conditions: TR-FRET kinase assay, cMET protein. As to the method: In addition, in order to measure the enzyme activity inhibition for cMET, the evaluation was performed in the same manner as the enzyme activity inhibition measurement experiment for the RON.
Specifically, the compound was prepared to a concentration of 1 mM with 100% DMSO and was diluted 10 times in a stepwise manner through 3-fold dilution. 2 ul of the compound diluted in a stepwise manner was added to a 96-well-plate containing 48 ul of a 1× kinase reaction buffer (50 mM HEPES (pH 7.4), 0.05% BSA, 0.005% Tween-20, 1 mM DTT, 0.5 mM MnCl2, 20 mM MgCl2).
The cMET protein was diluted to a concentration of 263 nM with a cMET storage buffer (50 mM Tris-HCl (pH 7.5), 150 mM NaCl, 0.05% Brij35, 1 mM DTT, 10% Glycerol), and then diluted again to a concentration of 2 nM with a 1× kinase reaction buffer. As a substrate cocktail, a MET-specific substrate mixture (5 uM TK peptide, […]) at a concentration 2 times the final reaction concentration.
as §1
as §2, with “of 2” for “of 0.4”, “nM cMET” for “nM RON”, “of 90” for “of 30”, “The […]” for “The IC50”

pIC50: −log10 of the molar value.

Sequence of RON (Q04912 25-1400, species assumed): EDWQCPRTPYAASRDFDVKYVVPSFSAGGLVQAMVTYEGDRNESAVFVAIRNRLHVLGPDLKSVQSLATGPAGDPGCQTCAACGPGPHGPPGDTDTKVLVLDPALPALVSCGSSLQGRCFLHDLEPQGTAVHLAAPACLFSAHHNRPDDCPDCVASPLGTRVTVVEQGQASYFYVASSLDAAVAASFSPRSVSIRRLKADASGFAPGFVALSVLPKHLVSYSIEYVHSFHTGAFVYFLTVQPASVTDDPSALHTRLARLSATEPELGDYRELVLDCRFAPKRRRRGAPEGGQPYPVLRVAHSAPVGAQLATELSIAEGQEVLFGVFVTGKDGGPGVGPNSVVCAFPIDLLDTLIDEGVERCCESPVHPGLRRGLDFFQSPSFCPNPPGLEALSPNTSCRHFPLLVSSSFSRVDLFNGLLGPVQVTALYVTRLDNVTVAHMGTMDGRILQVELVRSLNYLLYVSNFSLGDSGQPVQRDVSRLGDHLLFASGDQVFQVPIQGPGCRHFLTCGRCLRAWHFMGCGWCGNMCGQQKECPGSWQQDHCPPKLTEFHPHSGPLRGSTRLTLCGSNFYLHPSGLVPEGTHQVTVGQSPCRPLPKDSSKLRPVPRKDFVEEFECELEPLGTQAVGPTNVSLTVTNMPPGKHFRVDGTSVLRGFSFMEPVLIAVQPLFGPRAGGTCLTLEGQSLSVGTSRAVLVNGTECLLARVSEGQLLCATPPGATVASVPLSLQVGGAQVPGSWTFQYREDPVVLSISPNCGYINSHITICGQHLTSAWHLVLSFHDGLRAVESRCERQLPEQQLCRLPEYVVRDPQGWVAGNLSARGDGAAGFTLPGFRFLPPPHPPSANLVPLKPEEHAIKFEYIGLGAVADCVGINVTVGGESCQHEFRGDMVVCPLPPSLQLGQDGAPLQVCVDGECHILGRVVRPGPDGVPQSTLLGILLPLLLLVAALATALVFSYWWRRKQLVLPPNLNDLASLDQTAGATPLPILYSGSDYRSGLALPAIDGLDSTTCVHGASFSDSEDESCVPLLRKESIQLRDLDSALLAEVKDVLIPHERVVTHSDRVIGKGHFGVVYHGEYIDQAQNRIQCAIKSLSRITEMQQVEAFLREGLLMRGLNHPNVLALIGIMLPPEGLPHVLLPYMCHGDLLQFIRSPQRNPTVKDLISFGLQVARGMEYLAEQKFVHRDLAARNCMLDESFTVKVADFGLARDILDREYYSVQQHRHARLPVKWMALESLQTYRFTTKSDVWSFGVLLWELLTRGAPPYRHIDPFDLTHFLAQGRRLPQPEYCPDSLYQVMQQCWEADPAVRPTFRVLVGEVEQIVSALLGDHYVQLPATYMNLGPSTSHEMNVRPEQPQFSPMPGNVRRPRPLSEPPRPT
Sequence of cMET (P08581 25-1390): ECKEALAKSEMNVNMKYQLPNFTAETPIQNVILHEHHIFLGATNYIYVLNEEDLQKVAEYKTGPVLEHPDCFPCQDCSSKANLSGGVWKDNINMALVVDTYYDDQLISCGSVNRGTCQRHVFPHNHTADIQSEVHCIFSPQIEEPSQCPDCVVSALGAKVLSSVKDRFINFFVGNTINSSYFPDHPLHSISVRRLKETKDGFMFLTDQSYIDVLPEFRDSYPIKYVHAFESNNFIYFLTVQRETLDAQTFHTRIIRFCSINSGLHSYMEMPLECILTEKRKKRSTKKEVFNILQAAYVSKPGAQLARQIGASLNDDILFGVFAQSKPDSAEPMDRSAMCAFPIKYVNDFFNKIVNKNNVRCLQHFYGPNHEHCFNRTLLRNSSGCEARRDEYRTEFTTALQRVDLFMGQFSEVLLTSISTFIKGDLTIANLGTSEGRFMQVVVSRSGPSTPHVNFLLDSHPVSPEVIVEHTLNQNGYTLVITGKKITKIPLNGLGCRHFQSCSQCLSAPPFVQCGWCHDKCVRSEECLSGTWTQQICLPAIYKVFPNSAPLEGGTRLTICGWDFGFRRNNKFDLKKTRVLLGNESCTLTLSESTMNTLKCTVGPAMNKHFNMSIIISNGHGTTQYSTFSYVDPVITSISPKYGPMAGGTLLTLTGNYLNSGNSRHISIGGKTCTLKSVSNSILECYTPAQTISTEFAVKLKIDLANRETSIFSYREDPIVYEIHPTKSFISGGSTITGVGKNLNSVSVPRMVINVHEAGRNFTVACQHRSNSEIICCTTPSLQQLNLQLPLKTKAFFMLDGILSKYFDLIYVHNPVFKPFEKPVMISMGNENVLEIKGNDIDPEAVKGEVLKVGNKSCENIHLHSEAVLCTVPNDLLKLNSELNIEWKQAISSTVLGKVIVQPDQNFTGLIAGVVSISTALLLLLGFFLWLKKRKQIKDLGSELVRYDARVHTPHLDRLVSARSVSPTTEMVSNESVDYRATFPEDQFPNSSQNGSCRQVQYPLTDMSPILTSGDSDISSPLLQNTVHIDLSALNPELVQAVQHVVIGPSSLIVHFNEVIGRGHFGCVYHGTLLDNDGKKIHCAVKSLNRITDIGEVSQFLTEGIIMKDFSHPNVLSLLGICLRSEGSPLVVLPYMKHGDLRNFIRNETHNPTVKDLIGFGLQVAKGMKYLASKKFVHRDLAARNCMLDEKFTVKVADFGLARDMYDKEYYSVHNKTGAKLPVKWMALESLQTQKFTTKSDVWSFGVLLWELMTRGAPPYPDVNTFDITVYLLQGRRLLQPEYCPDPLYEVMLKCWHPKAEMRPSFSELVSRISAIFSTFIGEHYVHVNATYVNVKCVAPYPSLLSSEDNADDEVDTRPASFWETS

What is called pIC50 is the negative decadic logarithm of the IC50, by convention in mol/L. Low readings indicate a large IC50, high ones a small IC50. With `Cc1cccc(-n2ncc(C(=O)Nc3ccc(Oc4ccnc5[nH]c(=O)n(C(C)C)c45)c(F)c3)c2C(F)(F)F)n1` [Example 18, N-(3-fluoro-4-((1-isopropyl-2-oxo-2,3-dihydro-1H-imidazo[4,5-b]pyridine-7-yl)oxy)phenyl)-1-(6-methylpyridine-2-yl)-5-(trifluoromethyl)-1H-pyrazole-4-carboxamide], the pIC50 on RON was greater than 7.30; on cMET it was 5.30 to 6.30.

For the compound `CCc1c(C(=O)Nc2ccc(Oc3ccnc4[nH]c(=O)n(C5CCCC5)c34)c(F)c2)cnn1-c1cncnc1` [Example 6, N-(4-((1-cyclopentyl-2-oxo-2,3-dihydro-1H-imidazo[4,5-b]pyridine-7-yl)oxy)-3-fluorophenyl)-5-ethyl-1-(pyrimidine-5-yl)-1H-pyrazole-4-carboxamide], the pIC50 against RON is 6.30 to 7.30; against cMET, less than 5.30.

For the compound `Cc1c(C(=O)Nc2ccc(Oc3ccnc4[nH]c(=O)n(C(C)C)c34)c(F)c2)cnn1-c1cncnc1` [Example 5, N-(3-fluoro-4-((1-isopropyl-2-oxo-2,3-dihydro-1H-imidazo[4,5-b]pyridine-7-yl)oxy)phenyl)-5-methyl-1-(pyrimidine-5-yl)-1H-pyrazole-4-carboxamide], the results for the pIC50 against RON and on cMET were 6.30 to 7.30 and 5.30 to 6.30, respectively.

For the compound `CC(C)n1c(=O)[nH]c2nccc(Oc3ccc(NC(=O)c4cnn(-c5cc(C6=CCOCC6)ccn5)c4C(F)(F)F)cc3F)c21` [Example 32, 1-(4-(3,6-dihydro-2H-pyran-4-yl)pyridine-2-yl)-N-(3-fluoro-4-((1-isopropyl-2-oxo-2,3-dihydro-1H-imidazo[4,5-b]pyridine-7-yl)oxy)phenyl)-5-(trifluoromethyl)-1H-pyrazole-4-carboxamide], the negative-log IC50 (pIC50) is 6.30 to 7.30 against RON and 5.30 to 6.30 at cMET.

Consider `CC(C)n1c(=O)[nH]c2nccc(Oc3ccc(NC(=O)c4cnn(-c5cccnn5)c4C(F)(F)F)cc3F)c21` [Example 35, N-(3-fluoro-4-((1-isopropyl-2-oxo-2,3-dihydro-1H-imidazo[4,5-b]pyridine-7-yl)oxy)phenyl)-1-(pyridazine-3-yl)-5-(trifluoromethyl)-1H-pyrazole-4-carboxamide], for which the pIC50 on RON is greater than 7.30; at cMET, 5.30 to 6.30.

Turning to `CC(C)n1c(=O)[nH]c2nccc(Oc3ccc(NC(=O)c4cnn(-c5ccncc5)c4C(F)(F)F)cc3F)c21` [Example 24, N-(3-fluoro-4-((1-isopropyl-2-oxo-2,3-dihydro-1H-imidazo[4,5-b]pyridine-7-yl)oxy)phenyl)-1-(pyridine-4-yl)-5-(trifluoromethyl)-1H-pyrazole-4-carboxamide], the pIC50 was greater than 7.30 against RON and 5.30 to 6.30 against cMET.

Take `COc1ccnc(-n2ncc(C(=O)Nc3ccc(Oc4ccnc5[nH]c(=O)n(C(C)C)c45)c(F)c3)c2C(F)(F)F)c1` [Example 33, N-(3-fluoro-4-((1-isopropyl-2-oxo-2,3-dihydro-1H-imidazo[4,5-b]pyridine-7-yl)oxy)phenyl)-1-(4-methoxypyridine-2-yl)-5-(trifluoromethyl)-1H-pyrazole-4-carboxamide]: the pIC50 on RON is greater than 7.30; at cMET it was 5.30 to 6.30.

Consider `CC(C)n1c(=O)[nH]c2nccc(Oc3ccc(NC(=O)c4cnn(-c5cc(C(F)(F)F)ccn5)c4C(F)(F)F)cc3F)c21` [Example 17, N-(3-fluoro-4-((1-isopropyl-2-oxo-2,3-dihydro-1H-imidazo[4,5-b]pyridine-7-yl)oxy)phenyl)-5-(trifluoromethyl)-1-(4-(trifluoromethyl)pyridine-2-yl)-1H-pyrazole-4-carboxamide], for which the pIC50 on RON was 6.30 to 7.30; against cMET, less than 5.30.

`CCc1c(C(=O)Nc2ccc(Oc3ccnc4[nH]c(=O)n(C(C)C)c34)c(F)c2)cnn1-c1cncnc1` [Example 2, 5-ethyl-N-(3-fluoro-4-((1-isopropyl-2-oxo-2,3-dihydro-1H-imidazo[4,5-b]pyridine-7-yl)oxy)phenyl)-1-(pyrimidine-5-yl)-1H-pyrazole-4-carboxamide]: the pIC50 against RON is greater than 7.30; on cMET it was less than 5.30.

For `CC(C)n1c(=O)[nH]c2nccc(Oc3ccc(NC(=O)c4cnn(-c5nccc6ccccc56)c4C(F)(F)F)cc3F)c21` [Example 20, N-(3-fluoro-4-((1-isopropyl-2-oxo-2,3-dihydro-1H-imidazo[4,5-b]pyridine-7-yl)oxy)phenyl)-1-(isoquinoline-1-yl)-5-(trifluoromethyl)-1H-pyrazole-4-carboxamide], the pIC50 was greater than 7.30 against RON and 5.30 to 6.30 on cMET.

Consider `CCc1ccnc(-n2ncc(C(=O)Nc3ccc(Oc4ccnc5[nH]c(=O)n(C(C)C)c45)c(F)c3)c2C(F)(F)F)c1` [Example 30, 1-(4-ethylpyridine-2-yl)-N-(3-fluoro-4-((1-isopropyl-2-oxo-2,3-dihydro-1H-imidazo[4,5-b]pyridine-7-yl)oxy)phenyl)-5-(trifluoromethyl)-1H-pyrazole-4-carboxamide], for which the figures for the negative-log IC50 (pIC50) against RON and against cMET were 6.30 to 7.30 and 5.30 to 6.30, respectively.

As to `Cc1ccnc(-n2ncc(C(=O)Nc3ccc(Oc4ccnc5[nH]c(=O)n(C(C)C)c45)c(F)c3)c2C(F)(F)F)n1` [Example 26, N-(3-fluoro-4-((1-isopropyl-2-oxo-2,3-dihydro-1H-imidazo[4,5-b]pyridine-7-yl)oxy)phenyl)-1-(4-methylpyrimidine-2-yl)-5-(trifluoromethyl)-1H-pyrazole-4-carboxamide], the pIC50 on RON is greater than 7.30; against cMET, 5.30 to 6.30.

As to `CCOc1cccnc1-n1ncc(C(=O)Nc2ccc(Oc3ccnc4[nH]c(=O)n(C(C)C)c34)c(F)c2)c1C(F)(F)F` [Example 37, 1-(3-ethoxypyridine-2-yl)-N-(3-fluoro-4-((1-isopropyl-2-oxo-2,3-dihydro-1H-imidazo[4,5-b]pyridine-7-yl)oxy)phenyl)-5-(trifluoromethyl)-1H-pyrazole-4-carboxamide], the results for the pIC50 at RON and on cMET were 6.30 to 7.30 and 5.30 to 6.30, respectively.

Regarding `Cc1ccc(-n2ncc(C(=O)Nc3ccc(Oc4ccnc5[nH]c(=O)n(C(C)C)c45)c(F)c3)c2C(F)(F)F)nc1` [Example 9, N-(3-fluoro-4-((1-isopropyl-2-oxo-2,3-dihydro-1H-imidazo[4,5-b]pyridine-7-yl)oxy)phenyl)-1-(5-methylpyridine-2-yl)-5-(trifluoromethyl)-1H-pyrazole-4-carboxamide], the pIC50 against RON was 6.30 to 7.30; on cMET, less than 5.30.

With `O=C(Nc1ccc(Oc2ccnc3[nH]c(=O)n(C4CCOCC4)c23)c(F)c1)c1cnn(-c2ncccc2F)c1C(F)(F)F` [Example 39, N-(3-fluoro-4-((2-oxo-1-(tetrahydro-2H-pyran-4-yl)-2,3-dihydro-1H-imidazo[4,5-b]pyridine-7-yl)oxy)phenyl)-1-(3-fluoropyridine-2-yl)-5-(trifluoromethyl)-1H-pyrazole-4-carboxamide], the pIC50 was greater than 7.30 against RON and 5.30 to 6.30 against cMET.

(Values after patent US20240317739A1, “NOVEL UREA DERIVATIVE COMPOUND AS RON INHIBITOR” (LG CHEM, LTD., priority 2021, published 2024).)
